This is an account of results in patent US7943618B2, “Btk protein kinase inhibitors” (Roche Palo Alto LLC, priority 2007, dated 2011).

The target of this assay is T1, Btk enzyme (His-tagged, full-length) (Homo sapiens, UniProt Q06187).
T1 construct: 5-10 nM Btk enzyme (His-tagged, full-length); His
In words: Bruton's Tyrosine Kinase (Btk) Inhibition Assay (33P filtration capture). The settings on record: Bruton's tyrosine kinase Assay (Example 34), 100 μM ATP. Type of assay: biochemical. The source says:
Bruton's Tyrosine Kinase (Btk) Inhibition Assay
The assay is a capture of radioactive ^33P phosphorylated product through filtration. The interactions of Btk, biotinylated SH2 peptide substrate (Src homology), and ATP lead to phosphorylation of the peptide substrate. Biotinylated product is bound streptavidin sepharose beads. All bound, radiolabeled products are detected by scintillation counter.
Plates assayed are 96-well polypropylene (Greiner) and 96-well 1.2 μm hydrophilic PVDF filter plates (Millipore).
IC50 determinations are calculated from 10 data points per compound utilizing data produced from a standard 96-well plate assay template. One control compound and seven unknown inhibitors were tested on each plate and each plate was run twice. […] The control compound was staurosporine. Background was counted in the absence of peptide substrate. Total activity was determined in the presence of peptide substrate. The following protocol was used to determine Btk inhibition.
1) Sample preparation: The test compounds were diluted at half-log increments in assay buffer (imidazole, glycerol-2-phosphate, EGTA, MnCl2, MgCl2, BSA).
2) Bead preparation • a.) rinse beads by centrifuging at 500 g • b.) reconstitute the beads with PBS and EDTA to produce a 20% bead slurry
3) Pre-incubate reaction mix without substrate (assay buffer, DTT, ATP, ^33P ATP) and mix with substrate (assay buffer, DTT, ATP, ^33P ATP, peptide substrate) 30° C. for 15 min.
4) To start assay, pre-incubate 10 μL Btk in enzyme buffer (imidazole, glycerol-2-phosphate, BSA) and 10 μL of test compounds for 10 min at RT.
5) Add 30 μL reaction mixture without or with substrate to Btk and compounds.
6) Incubate 50 μL total assay mix for 30 min at 30° C.
7) Transfer 40 μL of assay to 150 μL bead slurry in filter plate to stop reaction.
8) Wash filter plate after 30 min, with following steps • a. 3×250 μL NaCl • b. 3×250 μL NaCl containing 1% phosphoric acid • c. 1×250 μL H2O
9) Dry plate for 1 h at 65° C. or overnight at RT
10) Add 50 μL microscint-20 and count ^33P cpm on scintillation counter.
Calculate percent activity from raw data in cpm percent activity=(sample−bkg)/(total activity−bkg)×100
Calculate IC50 from percent activity, using one-site dose response sigmoidal model y=A+((B−A)/(1+((x/C)^D))))

T1 sequence (Q06187 whole entry): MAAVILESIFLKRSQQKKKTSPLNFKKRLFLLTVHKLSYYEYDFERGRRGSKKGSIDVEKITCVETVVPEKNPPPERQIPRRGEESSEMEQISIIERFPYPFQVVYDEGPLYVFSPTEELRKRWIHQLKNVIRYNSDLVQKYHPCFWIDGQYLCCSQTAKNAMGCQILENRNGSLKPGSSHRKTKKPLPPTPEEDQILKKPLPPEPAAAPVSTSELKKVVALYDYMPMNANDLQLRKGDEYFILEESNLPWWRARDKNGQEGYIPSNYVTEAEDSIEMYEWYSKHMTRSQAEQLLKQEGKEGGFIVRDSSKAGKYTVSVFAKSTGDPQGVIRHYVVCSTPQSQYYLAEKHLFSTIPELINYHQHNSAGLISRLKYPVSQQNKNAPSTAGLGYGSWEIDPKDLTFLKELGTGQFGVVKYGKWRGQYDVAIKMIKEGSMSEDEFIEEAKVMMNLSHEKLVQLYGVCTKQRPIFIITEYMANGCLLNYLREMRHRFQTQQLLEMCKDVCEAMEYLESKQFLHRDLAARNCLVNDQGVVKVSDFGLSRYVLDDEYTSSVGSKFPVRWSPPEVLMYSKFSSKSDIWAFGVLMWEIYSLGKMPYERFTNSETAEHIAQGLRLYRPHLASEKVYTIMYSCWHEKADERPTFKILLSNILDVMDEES

In the case of `CNC(=O)Nc1cc(-c2cccc(CC(=O)N3Cc4cc(Cl)c(Cl)cc4C3)c2)cn(C)c1=O` [II-31], the IC50 (commonly the midpoint of a concentration-inhibition curve) (Table II pyridinones) is 14800 nM.

Molecule `CCC(O)CNC(=O)Nc1cc(-c2cccc(NC(=O)c3ccc(C4CC4)cc3)c2CO)cn(C)c1=O` (stereo not drawn) [II-85] came in with an IC50 (Table II pyridinones) of 46 nM. On to `Cn1cc(-c2cccc(NC(=O)c3ccc(C4(C(F)F)CC4)cc3)c2CO)cc(Nc2ccc(C(=O)N3CCOCC3)cn2)c1=O` [II-72, 4-(1-Difluoromethyl-cyclopropyl)-N-(2-hydroxymethyl-3-{1-methyl-5-[5-(morpholine-4-carbonyl)-pyridin-2-ylamino]-6-oxo-1,6-dihydro-pyridin-3-yl}-phenyl)-benzamide], for which the IC50 (Table II pyridinones) was below 10 nM. Same read-out and setting: the result for `CC(C)n1nc(Nc2cc(-c3cccc(NC(=O)c4ccc(C5CC5)cc4)c3CO)cn(C)c2=O)ccc1=O` [II-88] reads 140 nM; that for `Cn1cc(-c2cccc(NC(=O)c3ccccc3)c2CO)cc(Nc2ccc(C(=O)N3CCOCC3)cn2)c1=O` [II-67], 770 nM; that for `Cn1cc(-c2cccc(NC(=O)c3ccc(N4CCCCC4)cc3)c2CO)cc(Nc2ccc(C(=O)N3CCOCC3)cn2)c1=O` [II-97], 114 nM.

As for `Cc1c(NC(=O)c2ccc(C(C)(C)C)cc2)cccc1-c1cc(Nc2ccnc(S(C)(=O)=O)n2)c(=O)n(C)n1` [Compound I-13], where the note is “Table I pyridazinones”, the IC50 was determined as 1060 nM. This lies in the single-digit micromolar range. Still for that read-out and setting: for `CC(=O)N1CCN(C(=O)Cc2cccc(-c3cc(Nc4ccc(C(=O)N5CCOCC5)cn4)c(=O)n(C)n3)c2)CC1` [Compound I-44] the value was 61600 nM. Under “Table II pyridinones”, `Cn1cc(-c2cccc(NC(=O)c3ccc4c(c3)OCC4(C)C)c2CO)cc(Nc2ccc(C(=O)N3CCOCC3)cn2)c1=O` [II-71, 3,3-Dimethyl-2,3-dihydro-benzofuran-6-carboxylic acid (2-hydroxymethyl-3-{1-methyl-5-[5-(morpholine-4-carbonyl)-pyridin-2-ylamino]-6-oxo-1,6-dihydro-pyridin-3-yl}-phenyl)-amide] displayed an IC50 below 10 nM. Molecule `Cn1cc(-c2cccc(NC(=O)c3ccc(C4CC4)cc3)c2CO)cc(Nc2ccc(N3CCOCC3)nn2)c1=O` [II-103] returned an IC50 (Table II pyridinones) of 14 nM. This lies in the double-digit nanomolar range. On the same count and under the same terms, the result for `Cn1cc(-c2cccc(NC(=O)c3ccc(C4CC4)cc3)c2CO)cc(Nc2cnccn2)c1=O` [II-98] reads 90 nM; that for `CNC(=O)Nc1cc(-c2cccc(NC(=O)c3ccc(C(C)(C)O)cc3)c2C)cn(C)c1=O` [II-28, 4-(1-Hydroxy-1-methyl-ethyl)-N-{2-methyl-3-[1-methyl-5-(3-methyl-ureido)-6-oxo-1,6-dihydro-pyridin-3-yl]-phenyl}-benzamide], 230 nM; that for `CCNC(=O)Nc1cc(-c2cccc(NC(=O)c3ccc(C(C)(C)C)cc3)c2C)cn(C)c1=O` [II-5], 13 nM. On the same count and under the same terms, for `CN(C)CCCNC(=O)Nc1cc(-c2cccc(NC(=O)c3ccc(C4CC4)cc3)c2CO)cn(C)c1=O` [II-80] the value was 43 nM. Take `Cc1c(NC(=O)c2ccc(C(C)(C)C)cc2)cccc1-c1cc(Nc2ccnc(OCC3CCNC3)n2)c(=O)n(C)n1` (stereo not drawn) [Compound I-19, 4-tert-Butyl-N-(2-methyl-3-{1-methyl-6-oxo-5-[2-(pyrrolidin-3-ylmethoxy)-pyrimidin-4-ylamino]-1,6-dihydro-pyridazin-3-yl}-phenyl)-benzamide]: under “Table I pyridazinones”, the IC50 was 143 nM. Still for that read-out and setting: the result for `Cc1c(NC(=O)c2ccc(C(C)(C)O)cc2)cccc1-c1cc(Nc2ccc(C(=O)N3CCOCC3)cn2)c(=O)n(C)n1` [Compound I-15] reads 374 nM.

As for `CNC(=O)Nc1cc(-c2cccc(CC(=O)N3Cc4ccc(F)cc4C3)c2)cn(C)c1=O` [II-46], inhibition (Table II pyridinones) was half-maximal at 3440 nM (IC50). This counts as single-digit micromolar. On the same count and under the same terms, for `CC(O)CNC(=O)Nc1cc(-c2cccc(NC(=O)c3ccc(C4CC4)cc3)c2CO)cn(C)c1=O` (stereo not drawn) [II-86] the value was 68 nM; for `Cn1cc(-c2cccc(NC(=O)c3ccc(Br)cc3)c2CO)cc(Nc2ccc(C(=O)N3CCOCC3)cn2)c1=O` [II-63], 31 nM. `CNC(=O)Nc1cc(-c2cccc(NC(=O)c3ccc(C(C)(C)C#N)cc3)c2C)cn(C)c1=O` [II-42, 4-(Cyano-dimethyl-methyl)-N-{2-methyl-3-[1-methyl-5-(3-methyl-ureido)-6-oxo-1,6-dihydro-pyridin-3-yl]-phenyl}-benzamide]: where the note is “Table II pyridinones”, the concentration for half-maximal inhibition (IC50) worked out at 681 nM. Same read-out and setting: for `Cn1cc(-c2cccc(NC(=O)c3ccc(C4CC4)cc3)c2CO)cc(Nc2ccc(C(=O)N3CCCC3)cn2)c1=O` [II-99] the value was 11 nM.

In turn, `CNC(=O)Nc1cc(-c2cccc(NC(=O)c3ccc(N4CCCCC4)nc3)c2C)cn(C)c1=O` [II-19] returned an IC50 (Table II pyridinones) of 310 nM. The same measure, in the same setting: for `Cn1cc(-c2cccc(NC(=O)c3ccc(C(C)(C)C(F)(F)F)cc3)c2CO)cc(Nc2ccc(C(=O)N3CCNCC3)cn2)c1=O` [II-81, N-(2-Hydroxymethyl-3-{1-methyl-6-oxo-5-[5-(piperazine-1-carbonyl)-pyridin-2-ylamino]-1,6-dihydro-pyridin-3-yl}-phenyl)4-(2,2,2-trifluoro-1,1-dimethyl-ethyl)-benzamide] the value was below 10 nM. The same measure, in the same setting: the result for `Cn1cc(-c2cccc(NC(=O)c3ccc(C4CC4)cc3)c2CO)cc(Nc2cccnn2)c1=O` [II-95] reads 20 nM. Still for that read-out and setting: the result for `Cn1cc(-c2cccc(NC(=O)N3Cc4ccccc4C3)c2CO)cc(Nc2ccc(C(=O)N3CCOCC3)cn2)c1=O` [II-102] reads below 10 nM; that for `Cn1cc(-c2cccc(NC(=O)c3ccc(C4CC4)cc3)c2CO)cc(Nc2ccc(C(=O)N3CCC3)cn2)c1=O` [II-101], below 10 nM; that for `CCOc1cccc(Nc2cc(-c3cccc(NC(=O)c4ccc(C5CC5)cc4)c3CO)cn(C)c2=O)n1` [II-90], 81 nM. `CN(C)c1ccc(C(=O)Nc2cccc(-c3cc(Nc4ccccn4)c(=O)n(C)c3)c2CO)cc1` [II-59] had an IC50 (Table II pyridinones) of 20 nM. Against the preceding molecule, the IC50 is about 4-fold lower. Take `Cn1cc(-c2cccc(NC(=O)c3ccc(C4CC4)cc3)c2CO)cc(NC(=O)NCCCN2CCOCC2)c1=O` [II-83]: inhibition (Table II pyridinones) was half-maximal at 54 nM (IC50). In turn, `CCn1nc(Nc2cc(-c3cccc(NC(=O)c4ccc(C5CC5)cc4)c3CO)cn(C)c2=O)ccc1=O` [II-91] yielded an IC50 (Table II pyridinones) of 66 nM. On the same count and under the same terms, for `Cn1cc(-c2cccc(NC(=O)c3ccc(C4CC4)cc3)c2CO)cc(Nc2ccc(=O)n(Cc3ccccc3)n2)c1=O` [II-93] the value was 298 nM.

Molecule `CCNC(=O)Nc1cc(-c2cccc(NC(=O)c3ccc(C4(F)CC4)cc3)c2CO)cn(C)c1=O` [II-65] returned an IC50 (Table II pyridinones) of 15 nM.

Consider `C#Cc1ccc(C(=O)Nc2cccc(-c3cc(Nc4ccc(C(=O)N5CCOCC5)cn4)c(=O)n(C)c3)c2CO)cc1` [II-69], for which inhibition (Table II pyridinones) was half-maximal at 76 nM (IC50). Molecule `Cn1cc(-c2cccc(NC(=O)c3ccc(C(C)(C)C#N)cc3)c2CO)cc(Nc2ccc(C(=O)N3CCOCC3)cn2)c1=O` [II-96] showed an IC50 (Table II pyridinones) below 10 nM. Same read-out and setting: the result for `Cn1cc(-c2cccc(NC(=O)c3ccc([Si](C)(C)C)cc3)c2CO)cc(Nc2ccc(C(=O)N3CCOCC3)cn2)c1=O` [II-76] reads 40 nM. Turning to `Cn1cc(-c2cccc(NC(=O)c3ccc(C(C)(C)F)cc3)c2CO)cc(Nc2ccc(C(=O)N3CCOCC3)cn2)c1=O` [II-52], the IC50 (Table II pyridinones) is below 10 nM. Still for that read-out and setting: the result for `CN(C)c1ccc(C(=O)Nc2cccc(-c3cc(Nc4ccc(C(=O)N5CCC(N(C)C)CC5)cn4)c(=O)n(C)c3)c2CO)cc1` [II-60] reads below 10 nM. Same read-out and setting: the result for `Cn1cc(-c2cccc(NC(=O)c3ccc(C(F)(F)F)cc3)c2CO)cc(Nc2ccc(C(=O)N3CCOCC3)cn2)c1=O` [II-55] reads 85 nM; that for `Cn1cc(-c2cccc(NC(=O)c3ccc(C4CC4)cc3)c2CO)cc(Nc2ccc(C(=O)N3CC(F)(F)C3)cn2)c1=O` [II-100], 31 nM; that for `Cn1cc(-c2cccc(NC(=O)c3ccc(C4(Cl)CC4)cc3)c2CO)cc(Nc2ccc(C(=O)N3CCOCC3)cn2)c1=O` [II-75], below 10 nM.

Under “Table I pyridazinones”, `Cn1nc(-c2cccc(CC(=O)c3ccc(C(C)(C)C)cc3)c2)cc(Nc2ccc(C(=O)N3CCOCC3)cn2)c1=O` [Compound I-37, 6-{3-[2-(4-tert-Butyl-phenyl)-2-oxo-ethyl]-phenyl}-2-methyl-4-[5-(morpholine-4-carbonyl)-pyridin-2-ylamino]-2H-pyridazin-3-one] returned an IC50 of 206 nM. For the molecule `Cn1cc(-c2cccc(NC(=O)c3ccc(C4CC4)cc3)c2CO)cc(NC(=O)NCCc2cccnc2)c1=O` [II-79], the IC50 (Table II pyridinones) stood at 160 nM. Still for that read-out and setting: the result for `COC(C)(C)c1ccc(C(=O)Nc2cccc(-c3cc(Nc4ccc(C(=O)N5CCOCC5)cn4)c(=O)n(C)c3)c2CO)cc1` [II-66] reads 24 nM; that for `Cn1cc(-c2cccc(NC(=O)c3ccc(S(F)(F)(F)(F)F)cc3)c2CO)cc(Nc2ccc(C(=O)N3CCOCC3)cn2)c1=O` [II-89], below 10 nM. The molecule `COC(=O)c1ccc(Nc2cc(-c3cccc(NC(=O)c4ccc(C(C)(C)C)cc4)c3C)nn(C)c2=O)nc1` [Compound I-9] had an IC50 (Table I pyridazinones) of 160 nM.
